Patent US6713513B2, “Method for treating cartilage related diseases” (Juneng Industry Co., Ltd., priority 2001, dated 2004)
Marks after values point to notes of the source that are not given here.

Key:
[1] = tested on: mRNA of collagen I of osteocyte; experiment: Hybridization in situ of mRNA of collagen I, osteocytes, femur of rats with retinoic acid osteoporosis; type: in vivo, rat; details: for Positive Case Nos. of osteocyte (mRNA of collagen I) / Positive percentage of mRNA of collagen I, osteocyte: 100 mg/kg body weight, 10 weeks
Description: (§1) The rats were administered drugs for 10 weeks, respectively.
(§2) Collagen I was stained by hybridization in situ, following the directions of the kit. After specific hybridization, mRNA of collagen I was developed by 3,3′-diaminobenzidine (DAB). The slide was routinely dehydrated and mounted.
(§3) X2 test was conducted to the experimental data.

[2] = tested on: mRNA of collagen I of chondrocyte; experiment: Hybridization in situ of mRNA of collagen I, chondrocytes, femur of rats with retinoic acid osteoporosis; type: in vivo, rat
Description: as §1, §2, §3

[3] = tested on: bone tissue of the rat with osteoporosis caused by retinoic acid; experiment: Histochemical staining (M-S, T-B, HE, V-K silver) of bone and cartilage; details: for Articular cartilage / cartilage matrix: blank-control group as normal reference; for Formation of new bone: compared with blank-control group; for Bone trabeculae in cancellous bone (figure legends): FIGS. 7, 13, 14
Description: (§4) Grouping of animals: 66 male 3-month-aged rats were used in the present test. Eight rats were randomly selected as blank-control group, which were fed with normal diet and tap water. The other 58 rats were randomly divided into 9 groups, and were continuously administered retinoic acid with a dosage of 70 mg/kg body weight and volume of 10 ml/kg body weight, and were fed with low calcium diet meanwhile. After two weeks of administration of retinoic acid, stop the drug and thus establishing osteoporosis models.
(4) Calcium citrate group: 6 rats, administered calcium citrate with a dosage of 100 mg/kg body weight
(5) Sodium hydroxyethyl phosphate group: 6 rats, administered sodium hydroxyethyl phosphate with a dosage of 100 mg/kg body weight
(§5) The rats were administered drugs for 10 weeks, respectively. During the whole test period, each group was fed with low calcium diet and de-ionized water except that the blank-control group was fed with normal diet. Then the lower one third of right femur of each rat was extracted, and preserved at −20° C.
(2) Histochemical Staining
a Masson-Goldner Lrichrone staining (M-S staining)
b Toluidine Blue staining (T-B staining)
c Hematoxylin-eosin (HE) staining
d Von Kossa silver staining of partial slice (V-K silver staining).

[4] = tested on: collagen I of chondrocyte; experiment: Immunohistochemical staining of collagen I (ABC method), chondrocytes, rats with retinoic acid osteoporosis; details: for Positive Case Nos. of chondrocyte (collagen I immunohistochemical staining) / Positive percentage of collagen I by immunohistochemical staining, chondrocyte: 100 mg/kg body weight, 10 weeks
Description: as §4, §5
Collagen I was immunohistochemically stained by ABC method, following the directions of kit. Collagen I was developed by DAB. The slide was routinely dehydrated and mounted. (The detection kit was provided by Wuhan Doctor Microbiologic Engineering Co. Ltd., China. Cat. No: BA0325)
The results were observed by microscopy, which was expressed by positive percentage. X2 test was conducted to the experimental data.

[5] = 100 mg/kg body weight, 10 weeks

calcium L-threonate
Positive percentage of mRNA of collagen I compared with Model-control group ([1]; rat, in vivo): significantly higher than Model-control group
Expression percentage of mRNA of collagen I compared with model-control group ([2]; rat, in vivo): significantly higher than that of model-control group
Nourishing blood vessels of the bone ([3]; 10 weeks): increased
Articular cartilage / cartilage matrix ([3]; 10 weeks): Cartilage collagen fibers and matrix thickened
Formation of new bone ([3]; 10 weeks): increased
Bone trabeculae in cancellous bone (figure legends) [3]: thick, dense and ordered
Osteocollagenous fibers by silver staining (figure legends) ([3]; silver staining, FIGS. 9, 10, 11, 20): parallel, regular and abundant
Positive percentages of collagen I by immunohistochemistry, comparison of groups ([4]; rat, in vivo): relatively higher

O=P([O-])([O-])OCCO.[Na+].[Na+] [Sodium hydroxyethyl phosphate, sodium hydroxyethyl phosphate]
Positive Case Nos. of osteocyte (mRNA of collagen I) [1]: 2
Positive percentage of mRNA of collagen I, osteocyte [1]: 33.3%
Articular cartilage / cartilage matrix ([3]; 10 weeks): developed retrograde affection
Bone trabeculae in cancellous bone (figure legends) [3]: excessive and disorganized
Staining of glycogen in cancellous bone (figure legends) ([3]; histochemical staining of glycogen, FIGS. 8, 13, 14): less glycogen
Positive Case Nos. of chondrocyte (collagen I immunohistochemical staining) [4]: 2
Positive percentage of collagen I by immunohistochemical staining, chondrocyte [4]: 33.3%

O=C([O-])CC(O)(CC(=O)[O-])C(=O)[O-].O=C([O-])CC(O)(CC(=O)[O-])C(=O)[O-].[Ca+2].[Ca+2].[Ca+2] [Calcium citrate, calcium citrate]
Positive Case Nos. of osteocyte (mRNA of collagen I) [1]: 2
Positive percentage of mRNA of collagen I, osteocyte [1]: 33.3%
Positive Case Nos. of chondrocyte (mRNA of collagen I) [2, 5]: 0 (0%)
Positive percentage of mRNA of collagen I, chondrocyte [2, 5]: 0 (0%)
Formation of new bone ([3]; 10 weeks): less than those of the blank-control group
Positive Case Nos. of chondrocyte (collagen I immunohistochemical staining) [4]: 0 (0%)**
Positive percentage of collagen I by immunohistochemical staining, chondrocyte [4]: 0 (0%)**
